Results: patent publication US9957264B2 (Merck Sharp & Dohme Corp., priority 2013, dated 2018)

Legend:
[1] = target: JAK2 (recombinant purified GST-tagged catalytic domain) (Homo sapiens (Human), UniProt O60674); test: Jak Biochemical HTRF Assay (JAK2); details: [ATP] 8.5 μM
[2] = target: JAK1 (recombinant purified GST-tagged catalytic domain) (Homo sapiens (Human), UniProt P23458); test: Jak Biochemical HTRF Assay (JAK1); details: [ATP] 31.8 μM
Procedure, shortened: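 Kinase reaction with biotinylated peptide substrate was started by ATP addition and run 120 min at room temperature, then quenched with EDTA stop buffer containing streptavidin-Dylight 650 and Eu-pY20 antibody. HTRF read 60 min later (665/615 nm ratio); percent inhibition vs log concentration fit to 4-parameter curve for IC50.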

Sequence of JAK1 (recombinant purified GST-tagged catalytic domain) (P23458 875-1153): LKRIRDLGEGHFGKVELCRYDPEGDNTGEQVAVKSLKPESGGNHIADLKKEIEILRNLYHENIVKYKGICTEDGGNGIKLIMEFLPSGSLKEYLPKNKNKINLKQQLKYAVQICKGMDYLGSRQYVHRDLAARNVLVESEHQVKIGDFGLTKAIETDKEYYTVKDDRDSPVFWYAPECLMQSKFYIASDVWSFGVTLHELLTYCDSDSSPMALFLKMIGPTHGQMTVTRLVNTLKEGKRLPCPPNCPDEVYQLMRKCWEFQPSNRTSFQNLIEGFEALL
Sequence of JAK2 (recombinant purified GST-tagged catalytic domain) (O60674 849-1124): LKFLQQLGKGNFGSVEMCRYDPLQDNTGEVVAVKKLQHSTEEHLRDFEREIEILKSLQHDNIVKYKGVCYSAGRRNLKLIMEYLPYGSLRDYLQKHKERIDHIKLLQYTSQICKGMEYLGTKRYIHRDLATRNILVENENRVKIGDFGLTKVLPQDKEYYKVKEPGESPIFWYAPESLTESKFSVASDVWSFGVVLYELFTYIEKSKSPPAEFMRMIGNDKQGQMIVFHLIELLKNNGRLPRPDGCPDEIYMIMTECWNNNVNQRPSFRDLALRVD

IC50 [1]	IC50 [2]	Compound
0.14 nM	0.07 nM	CN(C)S(=O)(=O)c1ccc(Nc2nn([C@]3(CC#N)CC[C@@H](C(=O)OC(C)(C)C)OC3)c3cc[nH]c(=O)c23)cc1 [Example 5-43, (2S,5S)-tert-butyl 5-(cyanomethyl)-5-(3-((4-(N,N-dimethylsulfamoyl)phenyl)amino)-4-oxo-4,5-dihydro-1H-pyrazolo[4,3-c]pyridin-1-yl)tetrahydro-2H-pyran-2-carboxylate]
2.48 nM	0.31 nM	CN(C)S(=O)(=O)c1ccc(Nc2nn(C3(CC#N)CCN(C(=O)C4CCOCC4)CC3)c3cc[nH]c(=O)c23)cc1 [Example 9-20, 4-({1-[4-(cyanomethyl)-1-(tetrahydro-2H-pyran-4-ylcarbonyl)piperidin-4-yl]-4-oxo-4,5-dihydro-1H-pyrazolo[4,3-c]pyridin-3-yl}amino)-N,N-dimethylbenzenesulfonamide]
172 nM	16.8 nM	N#CC[C@]1(n2nc(Nc3ccc4nccc(F)c4c3)c3c(=O)[nH]ccc32)CCOC1 (single isomer, unassigned) [Example 5-246, [(3S or 3R)-3-{3-[(4-fluoroquinolin-6-yl)amino]-4-oxo-4,5-dihydro-1H-pyrazolo[4,3-c]pyridin-1-yl}tetrahydrofuran-3-yl]acetonitrile]
1.21 nM	0.16 nM	CN(C)S(=O)(=O)c1ccc(Nc2nn(C3(CC#N)CCN(C(=O)C4CCCCC4)CC3)c3cc[nH]c(=O)c23)cc1 [Example 9-8, 4-({1-[4-(cyanomethyl)-1-(cyclohexylcarbonyl)piperidin-4-yl]-4-oxo-4,5-dihydro-1H-pyrazolo[4,3-c]pyridin-3-yl}amino)-N,N-dimethylbenzenesulfonamide]
14.6 nM	2.06 nM	CC(C)(C)OC(=O)[C@H]1CC[C@](CC#N)(n2nc(Nc3ccc(S(C)(=O)=O)cc3)c3c(=O)[nH]ccc32)CO1 [Example 5-40, (2R,5R)-tert-butyl 5-(cyanomethyl)-5-(3-((4-(methylsulfonyl)phenyl)amino)-4-oxo-4,5-dihydro-1H-pyrazolo [4,3-c]pyridin-1-yl) tetrahydro-2H-pyran-2-carboxylate]
0.46 nM	0.23 nM	CN(C)S(=O)(=O)c1ccc(Nc2nn(C3(CC#N)CCCC3)c3cc[nH]c(=O)c23)cc1 [Example 5-123]
0.1 nM	0.09 nM	Cc1cc(Nc2nn([C@@]3(CC#N)CCCC[C@H]3F)c3cc[nH]c(=O)c23)ccc1C(=O)N1CCOCC1 [Example 5-151, 2-((1R,2R)-2-fluoro-1-(3-((3-methyl-4-(morpholine-4-carbonyl)phenyl)amino)-4-oxo-4,5-dihydro-1H-pyrazolo[4,3-c]pyridin-1-yl)cyclohexyl)acetonitrile]
1.22 nM	0.61 nM	CO[C@H]1CCN(C(=O)c2ccc(Nc3nn([C@]4(CC#N)CCCOC4)c4cc[nH]c(=O)c34)cc2C)C1 [Example 5-116, 2-((S)-3-(3-((4-((S)-3-methoxypyrrolidine-1-carbonyl)-3-methylphenyl)amino)-4-oxo-4,5-dihydro-1H-pyrazolo[4,3-c]pyridin-1-yl)tetrahydro-2H-pyran-3-yl)acetonitrile]
0.19 nM	0.12 nM	CC(C)(C)NS(=O)(=O)c1ccc(Nc2nn(C3(CC#N)CCN(C(=O)C(C)(F)F)CC3)c3cc[nH]c(=O)c23)cc1 [Example 5-56, N-(tert-butyl)-4-((1-(4-(cyanomethyl)-1-(2,2-difluoropropanoyl)piperidin-4-yl)-4-oxo-4,5-dihydro-1H-pyrazolo[4,3-c]pyridin-3-yl)amino)benzene-sulfonamide]
3.08 nM	0.45 nM	CN(C)S(=O)(=O)c1ccc(Nc2nn(C3(CC#N)CCN(C(=O)OCC(C)(C)C)CC3)c3cc[nH]c(=O)c23)cc1 [Example 10-4, neopentyl 4-(cyanomethyl)-4-(3-((4-(N,N-dimethylsulfamoyl)phenyl)amino)-4-oxo-4,5-dihydro-1H-pyrazolo[4,3-c]pyridin-1-yl)piperidine-1-carboxylate]
1.21 nM	0.08 nM	CC(C)(C)N1Cc2cc(Nc3nn(C4(CC#N)CCCCC4)c4cc[nH]c(=O)c34)ccc2S1(=O)=O [Example 5-80, 2-(1-(3-((2-(tert-butyl)-1,1-dioxido-2,3-dihydrobenzo[d]isothiazol-5-yl)amino)-4-oxo-4,5-dihydro-1H-pyrazolo[4,3-c]pyridin-1-yl)cyclohexyl)acetonitrile]
1020 nM	74 nM	N#CC[C@]1(n2nc(Nc3ccc(Cl)cc3)c3c(=O)[nH]ccc32)CC[C@@H](NCC(F)(F)F)CC1 [Example 18-10, Cis 2-(1-(3-((4-chlorophenyl)amino)-4-oxo-4,5-dihydro-1H-pyrazolo[4,3-c]pyridin-1-yl)-4-((2,2,2-trifluoroethyl)amino)cyclohexyl)acetonitrile]
12.1 nM	4.34 nM	CC(C)(C)S(=O)(=O)c1ccc(Nc2nn([C@]3(CC#N)CCOC3)c3cc[nH]c(=O)c23)cc1 (single isomer, unassigned) [Example 5-250, (R or S)-2-(3-(3-((4-(tert-butylsulfonyl)phenyl)amino)-4-oxo-4,5-dihydro-1H-pyrazolo[4,3-c]pyridin-1-yl)tetrahydrofuran-3-yl)acetonitrile]
0.76 nM	0.34 nM	Cc1cc(Nc2nn([C@]3(CC#N)CCCOC3)c3cc[nH]c(=O)c23)ccc1C(=O)N1CCOCC1 [Example 5-118, (S)-2-(3-(3-((3-methyl-4-(morpholine-4-carbonyl)phenyl)amino)-4-oxo-4,5-dihydro-1H-pyrazolo[4,3-c]pyridin-1-yl)tetrahydro-2H-pyran-3-yl)acetonitrile]
0.31 nM	0.08 nM	CN(C)S(=O)(=O)c1ccc(Nc2nn(C3(CC#N)CCN(C(=O)CC(F)(F)F)CC3)c3cc[nH]c(=O)c23)cc1 [Example 9-2, 4-({1-[4-(cyanomethyl)-1-(3,3,3-trifluoropropanoyl)piperidin-4-yl]-4-oxo-4,5-dihydro-1H-pyrazolo[4,3-c]pyridin-3-yl}amino)-N,N-dimethylbenzenesulfonamide]
32.4 nM	1.71 nM	N#CC[C@]1(n2nc(Nc3ccc(Cl)cc3)c3c(=O)[nH]ccc32)CC[C@H](Nc2ccccc2)CC1 [Example 18-14, Trans 2-(1-(3-((4-chlorophenyl)amino)-4-oxo-4,5-dihydro-1H-pyrazolo[4,3-c]pyridin-1-yl)-4-(phenylamino)cyclohexyl)acetonitrile]
2.71 nM	0.27 nM	N#CCC1(n2nc(Nc3ccc4c(c3)COC4=O)c3c(=O)[nH]ccc32)CCCC1 [Example 5-125, 2-(1-(4-oxo-3-((1-oxo-1,3-dihydroisobenzofuran-5-yl)amino)-4,5-dihydro-1H-pyrazolo[4,3-c]pyridin-1-yl)cyclopentyl)acetonitrile]
17.1 nM	1.93 nM	CC(C)(C)OC(=O)[C@@H]1CC[C@](CC#N)(n2nc(Nc3ccc(S(C)(=O)=O)cc3)c3c(=O)[nH]ccc32)CO1 (single isomer, unassigned) [Example 5-37, (2R,5S or 2S,5R)-tert-butyl 5-(cyanomethyl)-5-(3-((4-(methylsulfonyl)phenyl)amino)-4-oxo-4,5-dihydro-1H-pyrazolo[4,3-c]pyridin-1-yl)tetrahydro-2H-pyran-2-carboxylate]
23.3 nM	3.78 nM	CS(=O)(=O)NC(=O)[C@@H]1CC[C@@](CC#N)(n2nc(Nc3ccc(Cl)cc3)c3c(=O)[nH]ccc32)CO1 [Example 22, (2S,5S)-5-(3-((4-chlorophenyl)amino)-4-oxo-4,5-dihydro-1H-pyrazolo[4,3-c]pyridin-1-yl)-5-(cyanomethyl)-N-(methylsulfonyl)tetrahydro-2H-pyran-2-carboxamide]
4.81 nM	1.14 nM	N#CCC1(n2nc(Nc3ccc([C@@H](O)C(F)(F)F)cc3)c3c(=O)[nH]ccc32)CCN(c2cc(C(F)(F)F)ccn2)CC1 (single isomer, unassigned) [Example 16-2, (R or S)-2-(4-(4-oxo-3-(4-(2,2,2-trifluoro-1-hydroxyethyl)phenylamino)-4,5-dihydropyrazolo[4,3-c]pyridin-1-yl)-1-(4-(trifluoromethyl)pyridin-2-yl)piperidin-4-yl)acetonitrile]
0.66 nM	0.42 nM	N#CC[C@@]1(n2nc(Nc3ccc(S(=O)(=O)C4CCCCC4)cc3)c3c(=O)[nH]ccc32)CCCOC1 [Example 5-193, [(3S)-3-(3-{[4-(cyclohexylsulfonyl)phenyl]amino}-4-oxo-4,5-dihydro-1H-pyrazolo[4,3-c]pyridin-1-yl)tetrahydro-2H-pyran-3-yl]acetonitrile]
0.19 nM	0.15 nM	CC(C)(C)OC(=O)N1CC[C@](CC#N)(n2nc(Nc3ccc4c(c3)CN(C(C)(C)C)S4(=O)=O)c3c(=O)[nH]ccc32)[C@H](F)C1 [Example 5-22, tert-butyl (3R,4R)-4-{3-[(2-tert-butyl-1,1-dioxido-2,3-dihydro-1,2-benzisothiazol-5-yl)amino]-4-oxo-4,5-dihydro-1H-pyrazolo [4,3-c]pyridin-1-yl}-4-(cyanomethyl)-3-fluoropiperidine-1-carboxylate]
3.05 nM	0.55 nM	CN(C)S(=O)(=O)c1ccc(Nc2nn(C3(CC#N)CCN(C(=O)C(C)(C)C)CC3)c3cc[nH]c(=O)c23)cc1 [Example 9-5, 4-({1-[4-(cyanomethyl)-1-(2,2-dimethylpropanoyl)piperidin-4-yl]-4-oxo-4,5-dihydro-1H-pyrazolo[4,3-c]pyridin-3-yl}amino)-N,N-dimethylbenzenesulfonamide]
0.16 nM	0.09 nM	N#CC[C@]1(n2nc(Nc3ccc(C(N)C(F)(F)F)cc3)c3c(=O)[nH]ccc32)CCCC[C@H]1F (single isomer, unassigned) [Example 5-177, {(1R,2R)-1-[3-({4-[(1S or 1R)-1-amino-2,2,2-trifluoroethyl]phenyl}amino)-4-oxo-4,5-dihydro-1H-pyrazolo[4,3-c]pyridin-1-yl]-2-fluorocyclohexyl} acetonitrile]
